Source: patent EP0238060B1, “Cephalosporin derivatives, processes for their preparation and antibacterial agents” (Banyu Pharmaceutical Co., Ltd., priority 1986, dated 1987)
In brackets after ≈: the same amount, converted by molar mass. Where two headings read alike, the source gives them in different places.

Key:
Assay in all cases: In vitro antibacterial activity, agar plate dilution method (MIC)
Ps.maltophilia GN 12873 = type: cell-based, Pseudomonas maltophilia; details: Stenotrophomonas maltophilia, read-out: Minimum Inhibitory Concentration (MIC: µg/ml)
Procedure: (§1) The in vitro antibacterial activities of the compounds of the present invention against various microorganisms, were measured by the following agar plate dilution method. One platinum loopfull of each test microorganism incubated overnight in Mueller Hinton broth, was inoculated to Mueller Hinton agar (inoculum size: l0⁶ CFU/ml). Such culture media containing various antibiotics in various concentrations were prepared. After incubation at 37°C for l6 hours, the minimum inhibitory concentrations (MIC: µg/ml) were measured. As comparative compounds, Cefotaxime, Ceftazidime and the compounds of Reference Examples l to 4 were employed.

Ps.cepacia 23 = type: cell-based, Pseudomonas cepacia; details: read-out: Minimum Inhibitory Concentration (MIC: µg/ml)
Procedure: as §1

K.pneumoniae No. 42 = type: cell-based; details: Klebsiella pneumoniae, read-out: Minimum Inhibitory Concentration (MIC: µg/ml)
Procedure: as §1

S.aureus JS1 = type: cell-based; details: Staphylococcus aureus, read-out: Minimum Inhibitory Concentration (MIC: µg/ml)
Procedure: as §1

Ps.aeruginosa AKR17 = type: cell-based; details: Pseudomonas aeruginosa; Ps.aeruginosa AKR17; Mueller Hinton agar, inoculum 10⁶ CFU/ml, 37°C, 16 hours; read-out: Minimum Inhibitory Concentration (MIC: µg/ml)
Procedure: as §1

S.marcescens IAM 1184 = type: cell-based; details: Serratia marcescens, IAM1184, 16 h, read-out: Minimum Inhibitory Concentration (MIC: µg/ml)
Procedure: as §1

S.epidermidis IAM12012 = type: cell-based; details: Staphylococcus epidermidis, read-out: Minimum Inhibitory Concentration (MIC: µg/ml)
Procedure: as §1

S.aureus 209P NIHJ-JC1 = type: cell-based; details: Staphylococcus aureus, read-out: Minimum Inhibitory Concentration (MIC: µg/ml)
Procedure: as §1

K.oxytoca GN10650 = type: cell-based; details: Klebsiella oxytoca, read-out: Minimum Inhibitory Concentration (MIC: µg/ml)
Procedure: as §1

P.vulgaris No. 33 = type: cell-based; details: Proteus vulgaris, NO.33, 16 h, read-out: Minimum Inhibitory Concentration (MIC: µg/ml)
Procedure: as §1

E.coli GN5482 = type: cell-based; details: Escherichia coli, read-out: Minimum Inhibitory Concentration (MIC: µg/ml)
Procedure: as §1

A.calcoaceticus No. 4 = type: cell-based; details: Acinetobacter calcoaceticus, read-out: Minimum Inhibitory Concentration (MIC: µg/ml)
Procedure: as §1

S.aureus BB5703 = type: cell-based; details: Staphylococcus aureus, read-out: Minimum Inhibitory Concentration (MIC: µg/ml)
Procedure: as §1

C.freundii GN346/16 = type: cell-based; details: Citrobacter freundii, read-out: Minimum Inhibitory Concentration (MIC: µg/ml)
Procedure: as §1

E.cloacae 963 = type: cell-based; details: Enterobacter cloacae, 963, 16 h, read-out: Minimum Inhibitory Concentration (MIC: µg/ml)
Procedure: as §1

C.freundii GN346 = type: cell-based; details: Citrobacter freundii, read-out: Minimum Inhibitory Concentration (MIC: µg/ml)
Procedure: as §1

Ps.aeruginosa AK 109 = type: cell-based; details: Pseudomonas aeruginosa, read-out: Minimum Inhibitory Concentration (MIC: µg/ml)
Procedure: as §1

E.coli CSH2 (RK1) = type: cell-based; details: Escherichia coli, 16 h, read-out: Minimum Inhibitory Concentration (MIC: µg/ml)
Procedure: as §1

E.coli NIHJ JC2 = type: cell-based; details: Escherichia coli, read-out: Minimum Inhibitory Concentration (MIC: µg/ml)
Procedure: as §1

P.vulgaris HX-19 = type: cell-based; details: Proteus vulgaris, read-out: Minimum Inhibitory Concentration (MIC: µg/ml)
Procedure: as §1

E.cloacae Nek 39 = type: cell-based; details: Enterobacter cloacae, read-out: Minimum Inhibitory Concentration (MIC: µg/ml)
Procedure: as §1

M.morganii GN5407 = type: cell-based; details: Morganella morganii, read-out: Minimum Inhibitory Concentration (MIC: µg/ml)
Procedure: as §1

M.luteus ATCC9341 = type: cell-based; details: Micrococcus luteus, read-out: Minimum Inhibitory Concentration (MIC: µg/ml)
Procedure: as §1

E.coli CSH(RE45) = type: cell-based; details: Escherichia coli, 16 h, read-out: Minimum Inhibitory Concentration (MIC: µg/ml)
Procedure: as §1

K.pneumoniae PCI-602 = type: cell-based; details: Klebsiella pneumoniae, read-out: Minimum Inhibitory Concentration (MIC: µg/ml)
Procedure: as §1

S.marcescens No. 16-2 = type: cell-based; details: Serratia marcescens, read-out: Minimum Inhibitory Concentration (MIC: µg/ml)
Procedure: as §1

Ps.aeruginosa IFO3445 = type: cell-based; details: Pseudomonas aeruginosa; Ps.aeruginosa IFO3445; Mueller Hinton agar, inoculum 10⁶ CFU/ml, 37°C, 16 hours; read-out: Minimum Inhibitory Concentration (MIC: µg/ml)
Procedure: as §1

CC(C)(O/N=C(\C(=O)N[C@@H]1C(=O)N2C(C(=O)[O-])=C(C[n+]3ccccc3)CS[C@H]12)c1csc(N)n1)C(=O)O [Ceftazidime, reference compound]
MIC (Ps.maltophilia GN 12873; GN12873, 16 h): 100 µg/mL (≈ 183 µM) | MIC (Ps.cepacia 23; Burkholderia cepacia, 23, 16 h): 1.56 µg/mL (≈ 2.85 µM) | MIC (K.pneumoniae No. 42; NO.42, 16 h): 0.39 µg/mL (≈ 0.714 µM) | MIC (S.aureus JS1; JS1, 16 h): 50 µg/mL (≈ 91.5 µM) | MIC (Ps.aeruginosa AKR17): > 100 µg/mL | MIC (S.marcescens IAM 1184): 0.025 µg/mL (≈ 0.0457 µM) | MIC (S.epidermidis IAM12012; IAM12012, 16 h): 3.12 µg/mL (≈ 5.71 µM) | MIC (S.aureus 209P NIHJ-JC1; 16 h): 6.25 µg/mL (≈ 11.4 µM) | MIC (K.oxytoca GN10650; GN10650, 16 h): 0.2 µg/mL (≈ 0.366 µM) | MIC (P.vulgaris No. 33): 0.05 µg/mL (≈ 0.0915 µM) | MIC (E.coli GN5482; GN5482, 16 h): 3.12 µg/mL (≈ 5.71 µM) | MIC (A.calcoaceticus No. 4; NO.4, 16 h): 6.25 µg/mL (≈ 11.4 µM) | MIC (S.aureus BB5703; BB5703, 16 h): 25 µg/mL (≈ 45.7 µM) | MIC (C.freundii GN346/16; GN346, 16 h): 0.2 µg/mL (≈ 0.366 µM) | MIC (E.cloacae 963): 0.2 µg/mL (≈ 0.366 µM) | MIC (C.freundii GN346; GN346, 16 h): 25 µg/mL (≈ 45.7 µM) | MIC (Ps.aeruginosa AK 109; AK109, 16 h): 1.56 µg/mL (≈ 2.85 µM) | MIC (E.coli CSH2 (RK1)): 0.1 µg/mL (≈ 0.183 µM) | MIC (E.coli NIHJ JC2; NIHJJC2, 16 h): 0.2 µg/mL (≈ 0.366 µM) | MIC (P.vulgaris HX-19; HX19, 16 h): 0.025 µg/mL (≈ 0.0457 µM) | MIC (E.cloacae Nek 39; NEK39, 16 h): 1.56 µg/mL (≈ 2.85 µM) | MIC (M.morganii GN5407; GN5407, 16 h): 0.1 µg/mL (≈ 0.183 µM) | MIC (M.luteus ATCC9341; ATCC9341, 16 h): 1.56 µg/mL (≈ 2.85 µM) | MIC (E.coli CSH(RE45)): 0.1 µg/mL (≈ 0.183 µM) | MIC (K.pneumoniae PCI-602; PCI602, 16 h): 0.125 µg/mL (≈ 0.229 µM) | MIC (S.marcescens No. 16-2; NO.162, 16 h): 1.56 µg/mL (≈ 2.85 µM) | MIC (Ps.aeruginosa IFO3445): 0.39 µg/mL (≈ 0.714 µM)

C=C(O/N=C(\C(=O)NC1C(=O)N2C(C(=O)[O-])=C(C[n+]3ccc4cc(O)c(O)cc4c3)CSC12)c1csc(N)n1)C(=O)O (stereo not drawn) [Ex. 6, 7-[2-(2-aminothiazol-4-yl)-2-(l-carboxy-l-vinyloxyimino)acetamido]-3-(6,7-dihydroxy-2-isoquinolinio)methyl-3-cephem-4-carboxylate]
MIC (Ps.maltophilia GN 12873; GN12873, Ps.maltophilia GN 12873 (β-Lactamase-producing strain), Mueller Hinton agar, inoculum 10⁶ CFU/ml, 37°C, 16 hours): 25 µg/mL (≈ 40.8 µM) | MIC (Ps.cepacia 23; Burkholderia cepacia, Ps.cepacia 23, Mueller Hinton agar, inoculum 10⁶ CFU/ml, 37°C, 16 hours): 0.025 µg/mL (≈ 0.0408 µM) | MIC (K.pneumoniae No. 42; K.pneumoniae No. 42 (β-Lactamase-producing strain), Mueller Hinton agar, inoculum 10⁶ CFU/ml, 37°C, 16 hours): 0.025 µg/mL (≈ 0.0408 µM) | MIC (S.aureus JS1; S.aureus JS1 (β-Lactamase-producing strain), Mueller Hinton agar, inoculum 10⁶ CFU/ml, 37°C, 16 hours): 100 µg/mL (≈ 163 µM) | MIC (Ps.aeruginosa AKR17): 1.56 µg/mL (≈ 2.55 µM) | MIC (S.marcescens IAM 1184): 0.0125 µg/mL (≈ 0.0204 µM) | MIC (S.epidermidis IAM12012; S.epidermidis IAM12012, Mueller Hinton agar, inoculum 10⁶ CFU/ml, 37°C, 16 hours): 12.5 µg/mL (≈ 20.4 µM) | MIC (S.aureus 209P NIHJ-JC1; S.aureus 209P NIHJ-JC1, Mueller Hinton agar, inoculum 10⁶ CFU/ml, 37°C, 16 hours): 25 µg/mL (≈ 40.8 µM) | MIC (K.oxytoca GN10650; K.oxytoca GN10650 (β-Lactamase-producing strain), Mueller Hinton agar, inoculum 10⁶ CFU/ml, 37°C, 16 hours): 0.05 µg/mL (≈ 0.0816 µM) | MIC (P.vulgaris No. 33): 0.0125 µg/mL (≈ 0.0204 µM) | MIC (E.coli GN5482; E.coli GN5482 (β-Lactamase-producing strain), Mueller Hinton agar, inoculum 10⁶ CFU/ml, 37°C, 16 hours): 0.2 µg/mL (≈ 0.326 µM) | MIC (A.calcoaceticus No. 4; A.calcoaceticus No. 4, Mueller Hinton agar, inoculum 10⁶ CFU/ml, 37°C, 16 hours): 0.2 µg/mL (≈ 0.326 µM) | MIC (S.aureus BB5703; S.aureus BB5703, Mueller Hinton agar, inoculum 10⁶ CFU/ml, 37°C, 16 hours): 50 µg/mL (≈ 81.6 µM) | MIC (C.freundii GN346/16; C.freundii GN346/16, Mueller Hinton agar, inoculum 10⁶ CFU/ml, 37°C, 16 hours): 1.56 µg/mL (≈ 2.55 µM) | MIC (E.cloacae 963): 0.0125 µg/mL (≈ 0.0204 µM) | MIC (C.freundii GN346; C.freundii GN346 (β-Lactamase-producing strain), Mueller Hinton agar, inoculum 10⁶ CFU/ml, 37°C, 16 hours): 50 µg/mL (≈ 81.6 µM) | MIC (Ps.aeruginosa AK 109; AK109, Ps.aeruginosa AK 109, Mueller Hinton agar, inoculum 10⁶ CFU/ml, 37°C, 16 hours): 0.39 µg/mL (≈ 0.637 µM) | MIC (E.coli CSH2 (RK1)): 0.0125 µg/mL (≈ 0.0204 µM) | MIC (E.coli NIHJ JC2; NIHJJC2, E.coli NIHJ JC2, Mueller Hinton agar, inoculum 10⁶ CFU/ml, 37°C, 16 hours): 0.1 µg/mL (≈ 0.163 µM) | MIC (P.vulgaris HX-19; HX19, P.vulgaris HX-19, Mueller Hinton agar, inoculum 10⁶ CFU/ml, 37°C, 16 hours): < 0.006 µg/mL | MIC (E.cloacae Nek 39; NEK39, E.cloacae Nek 39 (β-Lactamase-producing strain), Mueller Hinton agar, inoculum 10⁶ CFU/ml, 37°C, 16 hours): 0.025 µg/mL (≈ 0.0408 µM) | MIC (M.morganii GN5407; M.morganii GN5407 (β-Lactamase-producing strain), Mueller Hinton agar, inoculum 10⁶ CFU/ml, 37°C, 16 hours): 0.05 µg/mL (≈ 0.0816 µM) | MIC (M.luteus ATCC9341; M.luteus ATCC9341, Mueller Hinton agar, inoculum 10⁶ CFU/ml, 37°C, 16 hours): 6.25 µg/mL (≈ 10.2 µM) | MIC (E.coli CSH(RE45)): 0.025 µg/mL (≈ 0.0408 µM) | MIC (K.pneumoniae PCI-602; PCI602, K.pneumoniae PCI-602, Mueller Hinton agar, inoculum 10⁶ CFU/ml, 37°C, 16 hours): < 0.006 µg/mL | MIC (S.marcescens No. 16-2; NO.162, S.marcescens No. 16-2 (β-Lactamase-producing strain), Mueller Hinton agar, inoculum 10⁶ CFU/ml, 37°C, 16 hours): 0.1 µg/mL (≈ 0.163 µM) | MIC (Ps.aeruginosa IFO3445): 1.56 µg/mL (≈ 2.55 µM)
